Reference: ChEMBL document CHEMBL3885861, “Open TG-GATES”

Species on record: Rattus norvegicus
Assay: Open TG-GATES - Regimen: Daily Repeat
Type: toxicity, organism-based, Sprague-Dawley
Set-up: regimen Daily Repeat, gender Male, age 6 weeks
Conditions: in vivo, po, route gavage; for APTT / Bas / Eos / Fbg / Ht / Lym / MCH / MCHC / MCV / PT / Plat / RBC / Ret / WBC / Hb / Mono / Neu: tissue Blood; for KIDNEY_L / KIDNEY_R / KIDNEY_TOTAL: tissue Kidney; for LIVER: tissue Liver; for ALP / ALT / AST / CRE / Ca / Cl / DBIL / IP / K / LDH / Na / PL / RALB / TBIL / TC / TG / TP / gamma-GTP / BUN: tissue Plasma
[1] = 0 mg/kg, 72 h, dose level Control, time 3 day
[2] = 0 mg/kg, […], dose level Control, time 14 day
[3] = 0 mg/kg, […], dose level Control, time 28 day
[4] = 1 mg/kg, 72 h, dose level Low, time 3 day
[5] = 1 mg/kg, […], dose level Low, time 14 day
[6] = 1 mg/kg, […], dose level Low, time 28 day

## C#C[C@]1(O)CC[C@H]2[C@@H]3CCc4cc(O)ccc4[C@H]3CC[C@@]21C [ETHINYL ESTRADIOL]
[1]
  TERMINAL_BW: 222.5 g
  APTT: 16.4 s
  Bas: 0.2%
  Eos: 1%
  Fbg: 261.6 mg/dL
  Ht: 40.2%
  Lym: 79%
  MCH: 21.4 pg
  MCHC: 33.5%
  MCV: 63.8 fL
  PT: 12.3 s
  Plat: 110.8 x10_4/uL
  RBC: 630.4 x10_4/ul
  Ret: 7.8%
  WBC: 93.3 x10_2/uL
  KIDNEY_L: 0.9 g
  KIDNEY_R: 1 g
  LIVER: 10.3 g
  ALP: 1467.2 IU/L
  ALT: 49.6 IU/L
  AST: 73.2 IU/L
  CRE: 0.2 mg/dL
  Ca: 10.8 mg/dL
  Cl: 106.8 meq/L
  DBIL: 0.018 mg/dL
  IP: 6.5 mg/dL
  K: 4 meq/L
  LDH: 68.4 IU/L
  Na: 143.2 meq/L
  PL: 134.2 mg/dL
  RALB: 2.6 g/dL
  TBIL: 0.034 mg/dL
  TC: 77.8 mg/dL
  TG: 98.2 mg/dL
  TP: 5.5 g/dL
  gamma-GTP: 1.2 IU/L
[2]
  TERMINAL_BW: 321.6 g
  APTT: 16.7 s
  Bas: 0%
  Eos: 1%
  Fbg: 279.4 mg/dL
  Hb: 13.9 g/dL
  Ht: 40.3%
  Lym: 76.4%
  MCH: 20.9 pg
  MCV: 60.2 fL
  Mono: 2.4%
  PT: 11.8 s
  Plat: 120 x10_4/uL
  RBC: 668.4 x10_4/ul
  Ret: 4.5%
  WBC: 90.3 x10_2/uL
  KIDNEY_L: 1.3 g
  KIDNEY_R: 1.3 g
  KIDNEY_TOTAL: 2.6 g
  LIVER: 14.4 g
  ALP: 1586.6 IU/L
  ALT: 44.2 IU/L
  AST: 66.6 IU/L
  BUN: 15.4 mg/dL
  CRE: 0.2 mg/dL
  Ca: 11.3 mg/dL
  Cl: 104.8 meq/L
  DBIL: 0.016 mg/dL
  IP: 6.5 mg/dL
  K: 3.9 meq/L
  LDH: 72.8 IU/L
  Na: 143.2 meq/L
  PL: 143 mg/dL
  TBIL: 0.07 mg/dL
  TC: 74.6 mg/dL
  TG: 104.4 mg/dL
  TP: 6 g/dL
  gamma-GTP: 0.8 IU/L
[3]
  TERMINAL_BW: 423 g
  APTT: 18 s
  Bas: 0.2%
  Eos: 1%
  Fbg: 294.2 mg/dL
  Hb: 15 g/dL
  Ht: 42.5%
  Lym: 79.4%
  MCH: 20.3 pg
  MCHC: 35.3%
  MCV: 57.3 fL
  Mono: 2.2%
  Plat: 88.3 x10_4/uL
  RBC: 742.6 x10_4/ul
  Ret: 2.6%
  WBC: 108.2 x10_2/uL
  KIDNEY_L: 1.4 g
  KIDNEY_R: 1.4 g
  KIDNEY_TOTAL: 2.8 g
  LIVER: 18.3 g
  ALP: 1125 IU/L
  ALT: 39.4 IU/L
  AST: 58 IU/L
  BUN: 16 mg/dL
  CRE: 0.2 mg/dL
  Cl: 104.8 meq/L
  DBIL: 0.012 mg/dL
  IP: 6.1 mg/dL
  K: 3.8 meq/L
  LDH: 59.2 IU/L
  Na: 143.2 meq/L
  PL: 155.8 mg/dL
  RALB: 2.9 g/dL
  TBIL: 0.066 mg/dL
  TC: 80.4 mg/dL
  TG: 137.2 mg/dL
  TP: 6.3 g/dL
  gamma-GTP: 1 IU/L
[4]
  TERMINAL_BW: 204.6 g
  APTT: 17 s
  Bas: 0%
  Eos: 1%
  Fbg: 309.6 mg/dL
  Ht: 39.1%
  Lym: 82.4%
  MCHC: 34.2%
  MCV: 62.3 fL
  Mono: 3.6%
  Neu: 12.6%
  PT: 13.1 s
  Plat: 107.6 x10_4/uL
  RBC: 627.4 x10_4/ul
  Ret: 5.1%
  WBC: 72 x10_2/uL
  KIDNEY_L: 1 g
  KIDNEY_R: 1 g
  KIDNEY_TOTAL: 2 g
  LIVER: 11.7 g
  ALP: 2115.4 IU/L
  ALT: 41.2 IU/L
  AST: 84.2 IU/L
  BUN: 9.4 mg/dL
  CRE: 0.2 mg/dL
  Ca: 10.6 mg/dL
  Cl: 107.4 meq/L
  DBIL: 0.038 mg/dL
  IP: 7.4 mg/dL
  K: 4 meq/L
  LDH: 95.4 IU/L
  Na: 144 meq/L
  PL: 82.6 mg/dL
  RALB: 2.6 g/dL
  TBIL: 0.07 mg/dL
  TC: 29.4 mg/dL
  TG: 73.6 mg/dL
  TP: 5.6 g/dL
  gamma-GTP: 1.2 IU/L
[5]
  TERMINAL_BW: 243.2 g
  APTT: 23 s
  Bas: 0%
  Eos: 1%
  Fbg: 328.6 mg/dL
  Hb: 13.9 g/dL
  Ht: 38.9%
  Lym: 77.6%
  MCH: 20.1 pg
  MCHC: 35.6%
  MCV: 56.3 fL
  PT: 13.5 s
  Plat: 120.8 x10_4/uL
  RBC: 690.2 x10_4/ul
  Ret: 1.8%
  WBC: 80.9 x10_2/uL
  KIDNEY_L: 1 g
  KIDNEY_R: 1 g
  KIDNEY_TOTAL: 2 g
  LIVER: 13.6 g
  ALP: 1995.4 IU/L
  ALT: 41 IU/L
  AST: 53.8 IU/L
  BUN: 13.2 mg/dL
  CRE: 0.2 mg/dL
  Cl: 105.8 meq/L
  DBIL: 0.03 mg/dL
  IP: 5.7 mg/dL
  K: 3.9 meq/L
  LDH: 60.8 IU/L
  Na: 143.8 meq/L
  PL: 105.4 mg/dL
  RALB: 2.9 g/dL
  TBIL: 0.084 mg/dL
  TC: 33.4 mg/dL
  TG: 68 mg/dL
  TP: 6.5 g/dL
[6]
  TERMINAL_BW: 264.8 g
  APTT: 27.7 s
  Bas: 0%
  Eos: 1%
  Fbg: 328.6 mg/dL
  Hb: 14.3 g/dL
  Ht: 39%
  Lym: 77.6%
  MCH: 19.9 pg
  MCHC: 36.7%
  MCV: 54.2 fL
  Mono: 2.6%
  Neu: 18.8%
  PT: 13.6 s
  Plat: 113.5 x10_4/uL
  RBC: 720.8 x10_4/ul
  Ret: 2.4%
  WBC: 82.1 x10_2/uL
  KIDNEY_L: 1 g
  KIDNEY_R: 1 g
  KIDNEY_TOTAL: 2 g
  LIVER: 14.4 g
  ALP: 1546.2 IU/L
  ALT: 37.8 IU/L
  AST: 50.6 IU/L
  BUN: 14 mg/dL
  CRE: 0.3 mg/dL
  Ca: 10.8 mg/dL
  Cl: 105.4 meq/L
  DBIL: 0.036 mg/dL
  IP: 5.3 mg/dL
  K: 3.6 meq/L
  LDH: 38 IU/L
  Na: 144 meq/L
  PL: 147 mg/dL
  RALB: 3 g/dL
